Measurements published in ChEMBL document CHEMBL4507261, “Data for DCP probe A-192621” (2021).
Active and inactive are the calls of the source. No cut-off for these calls is given here.

Legend:
[1] = molecular target: 5-hydroxytryptamine receptor 7 (Homo sapiens) (UniProt P34969); conditions: Compound concentration 10.0 uM
[2] = molecular target: 5-hydroxytryptamine receptor 1B (Homo sapiens) (UniProt P28222); conditions: Compound concentration 10.0 uM
Endothelin-1 receptor = molecular target: T1, Endothelin-1 receptor (Homo sapiens, UniProt P25101); assay: EDNRA- dependent phosphatidylinositol hydrolysis assay; assay type: functional
T1 sequence (P25101 whole entry): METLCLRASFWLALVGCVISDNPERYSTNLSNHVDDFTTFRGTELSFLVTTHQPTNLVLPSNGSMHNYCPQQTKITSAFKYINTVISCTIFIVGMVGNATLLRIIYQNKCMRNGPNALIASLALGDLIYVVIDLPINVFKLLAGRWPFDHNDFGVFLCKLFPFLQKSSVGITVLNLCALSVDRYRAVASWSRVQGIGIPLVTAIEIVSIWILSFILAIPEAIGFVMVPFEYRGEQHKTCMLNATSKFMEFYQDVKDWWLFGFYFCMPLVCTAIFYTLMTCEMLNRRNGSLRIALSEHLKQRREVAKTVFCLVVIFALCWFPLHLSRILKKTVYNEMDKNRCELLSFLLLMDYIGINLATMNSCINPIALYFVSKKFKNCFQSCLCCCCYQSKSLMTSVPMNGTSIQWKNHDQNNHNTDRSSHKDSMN

[3] = molecular target: Histamine H2 receptor (Homo sapiens) (UniProt P25021); conditions: Compound concentration 10.0 uM
Histamine H2 receptor (Homo sapiens), sequence (P25021 whole entry): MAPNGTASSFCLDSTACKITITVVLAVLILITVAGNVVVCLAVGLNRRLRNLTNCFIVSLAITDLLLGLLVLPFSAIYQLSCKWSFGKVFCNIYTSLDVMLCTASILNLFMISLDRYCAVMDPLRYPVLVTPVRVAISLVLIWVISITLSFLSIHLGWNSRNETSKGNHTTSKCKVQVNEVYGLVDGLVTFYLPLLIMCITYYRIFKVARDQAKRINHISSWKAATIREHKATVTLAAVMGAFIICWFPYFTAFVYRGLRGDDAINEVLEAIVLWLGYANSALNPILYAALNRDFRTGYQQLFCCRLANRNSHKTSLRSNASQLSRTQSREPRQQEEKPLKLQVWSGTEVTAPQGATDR

[4] = molecular target: D(3) dopamine receptor (Homo sapiens) (UniProt P35462); conditions: Compound concentration 10.0 uM
D(3) dopamine receptor (Homo sapiens), sequence (P35462 whole entry): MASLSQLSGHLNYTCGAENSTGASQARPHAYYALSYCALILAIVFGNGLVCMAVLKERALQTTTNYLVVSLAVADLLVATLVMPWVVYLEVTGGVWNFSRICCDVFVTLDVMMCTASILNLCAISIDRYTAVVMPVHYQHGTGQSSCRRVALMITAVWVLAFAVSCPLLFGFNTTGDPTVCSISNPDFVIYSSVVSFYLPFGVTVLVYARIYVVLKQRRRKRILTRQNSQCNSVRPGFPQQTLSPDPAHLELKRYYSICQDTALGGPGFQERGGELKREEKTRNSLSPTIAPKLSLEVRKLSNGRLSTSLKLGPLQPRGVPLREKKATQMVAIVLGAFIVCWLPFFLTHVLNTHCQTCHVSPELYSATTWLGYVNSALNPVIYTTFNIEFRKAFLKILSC

[5] = molecular target: Endothelin receptor type B (Homo sapiens, UniProt P24530); assay: EDNRB- dependent phosphatidylinositol hydrolysis assay; assay type: functional
[6] = molecular target: GABA-A receptor; anion channel (Rattus norvegicus) (UniProt O09028+P15431+P18506+P18508+P19969+P20236+P23574+P23576+P28471+P28473+P30191+P62813+P63079+P63138+Q91ZM7+Q9ES14); conditions: Compound concentration 10.0 uM
[7] = molecular target: Sodium-dependent serotonin transporter (Homo sapiens) (UniProt P31645); conditions: Compound concentration 10.0 uM
[8] = molecular target: T2, 5-hydroxytryptamine receptor 2C (Homo sapiens) (UniProt P28335); conditions: Compound concentration 10.0 uM
T2 sequence (whole entry): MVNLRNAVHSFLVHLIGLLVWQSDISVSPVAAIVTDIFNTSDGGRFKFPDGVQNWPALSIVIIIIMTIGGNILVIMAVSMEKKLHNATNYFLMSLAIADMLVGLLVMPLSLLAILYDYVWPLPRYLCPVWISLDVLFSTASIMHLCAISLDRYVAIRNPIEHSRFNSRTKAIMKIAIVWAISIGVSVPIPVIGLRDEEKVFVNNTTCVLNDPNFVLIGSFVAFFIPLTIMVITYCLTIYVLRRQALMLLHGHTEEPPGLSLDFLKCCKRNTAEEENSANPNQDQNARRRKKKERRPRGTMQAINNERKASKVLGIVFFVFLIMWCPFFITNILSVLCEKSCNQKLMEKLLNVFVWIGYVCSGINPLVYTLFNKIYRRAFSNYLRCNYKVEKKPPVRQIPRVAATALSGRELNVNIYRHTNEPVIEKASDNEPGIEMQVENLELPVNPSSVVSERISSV

[9] = molecular target: Alpha-1D adrenergic receptor (Homo sapiens) (UniProt P25100); conditions: Compound concentration 10.0 uM
Alpha-1D adrenergic receptor (Homo sapiens), sequence (P25100 whole entry): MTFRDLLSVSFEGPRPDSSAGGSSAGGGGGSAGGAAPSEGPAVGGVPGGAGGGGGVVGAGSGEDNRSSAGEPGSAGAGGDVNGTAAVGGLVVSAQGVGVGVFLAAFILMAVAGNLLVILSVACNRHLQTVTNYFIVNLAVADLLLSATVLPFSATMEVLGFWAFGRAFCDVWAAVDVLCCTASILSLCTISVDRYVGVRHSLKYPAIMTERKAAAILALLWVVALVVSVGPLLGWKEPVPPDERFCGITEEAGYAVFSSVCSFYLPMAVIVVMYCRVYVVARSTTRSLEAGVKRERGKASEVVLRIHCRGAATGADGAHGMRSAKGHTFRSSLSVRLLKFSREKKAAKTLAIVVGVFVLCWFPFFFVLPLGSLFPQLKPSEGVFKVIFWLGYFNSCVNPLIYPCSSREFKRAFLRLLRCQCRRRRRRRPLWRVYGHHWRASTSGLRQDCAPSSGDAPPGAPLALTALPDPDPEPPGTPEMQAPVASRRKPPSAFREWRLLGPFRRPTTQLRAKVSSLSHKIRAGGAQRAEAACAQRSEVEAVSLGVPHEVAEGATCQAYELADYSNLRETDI

[10] = molecular target: Histamine H4 receptor (Homo sapiens) (UniProt Q9H3N8); conditions: Compound concentration 10.0 uM
Histamine H4 receptor (Homo sapiens), sequence (Q9H3N8 whole entry): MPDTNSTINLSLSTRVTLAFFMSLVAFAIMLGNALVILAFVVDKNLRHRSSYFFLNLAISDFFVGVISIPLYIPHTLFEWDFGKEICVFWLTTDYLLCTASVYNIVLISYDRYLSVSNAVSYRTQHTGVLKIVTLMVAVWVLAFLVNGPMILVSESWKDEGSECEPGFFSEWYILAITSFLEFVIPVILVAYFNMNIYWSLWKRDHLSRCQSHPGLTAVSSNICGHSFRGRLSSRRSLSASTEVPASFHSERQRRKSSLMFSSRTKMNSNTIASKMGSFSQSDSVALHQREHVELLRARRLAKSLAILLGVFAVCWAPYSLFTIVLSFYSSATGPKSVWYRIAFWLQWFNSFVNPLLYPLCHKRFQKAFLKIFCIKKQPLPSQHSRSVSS

[11] = molecular target: T3, Muscarinic acetylcholine receptor M4 (Homo sapiens) (UniProt P08173); conditions: Compound concentration 10.0 uM
T3 sequence (whole entry): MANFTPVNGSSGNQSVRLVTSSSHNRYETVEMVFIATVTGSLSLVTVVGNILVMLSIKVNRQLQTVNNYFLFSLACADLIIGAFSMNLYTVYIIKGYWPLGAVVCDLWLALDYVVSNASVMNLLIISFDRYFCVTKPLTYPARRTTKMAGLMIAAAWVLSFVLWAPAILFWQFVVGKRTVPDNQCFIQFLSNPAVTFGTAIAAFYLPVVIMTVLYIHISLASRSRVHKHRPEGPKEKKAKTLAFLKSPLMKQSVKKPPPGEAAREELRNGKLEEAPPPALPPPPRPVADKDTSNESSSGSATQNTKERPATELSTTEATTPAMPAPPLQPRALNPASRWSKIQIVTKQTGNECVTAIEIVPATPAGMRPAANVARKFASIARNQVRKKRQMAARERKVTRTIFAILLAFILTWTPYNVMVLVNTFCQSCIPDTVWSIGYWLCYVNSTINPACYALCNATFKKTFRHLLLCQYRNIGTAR

[12] = molecular target: D(1A) dopamine receptor (Homo sapiens) (UniProt P21728); conditions: Compound concentration 10.0 uM
D(1A) dopamine receptor (Homo sapiens), sequence (P21728 whole entry): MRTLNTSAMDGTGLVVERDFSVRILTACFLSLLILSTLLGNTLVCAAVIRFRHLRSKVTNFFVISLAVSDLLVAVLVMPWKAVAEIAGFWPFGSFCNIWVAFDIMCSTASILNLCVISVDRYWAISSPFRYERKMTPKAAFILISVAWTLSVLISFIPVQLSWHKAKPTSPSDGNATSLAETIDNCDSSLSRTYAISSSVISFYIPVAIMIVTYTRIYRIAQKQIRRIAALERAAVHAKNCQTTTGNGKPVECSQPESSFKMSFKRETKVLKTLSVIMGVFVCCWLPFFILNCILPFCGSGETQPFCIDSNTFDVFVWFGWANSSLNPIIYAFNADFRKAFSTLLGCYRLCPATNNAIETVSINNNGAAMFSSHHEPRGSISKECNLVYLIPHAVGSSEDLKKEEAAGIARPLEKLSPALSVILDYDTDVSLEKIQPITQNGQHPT

[13] = molecular target: 5-hydroxytryptamine receptor 5A (Homo sapiens) (UniProt P47898); conditions: Compound concentration 10.0 uM
5-hydroxytryptamine receptor 5A (Homo sapiens), sequence (P47898 whole entry): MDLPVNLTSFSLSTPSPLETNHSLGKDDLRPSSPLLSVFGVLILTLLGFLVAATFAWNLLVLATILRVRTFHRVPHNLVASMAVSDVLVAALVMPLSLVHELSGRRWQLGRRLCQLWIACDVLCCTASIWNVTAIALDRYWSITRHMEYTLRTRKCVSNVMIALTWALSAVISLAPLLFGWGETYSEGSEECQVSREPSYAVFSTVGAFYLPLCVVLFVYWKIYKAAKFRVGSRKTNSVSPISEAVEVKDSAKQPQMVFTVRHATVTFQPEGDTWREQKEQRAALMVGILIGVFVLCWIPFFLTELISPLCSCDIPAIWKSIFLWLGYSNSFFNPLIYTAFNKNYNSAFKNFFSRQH

[14] = molecular target: Mu-type opioid receptor (Homo sapiens) (UniProt P35372); conditions: Compound concentration 10.0 uM
Mu-type opioid receptor (Homo sapiens), sequence (P35372 whole entry): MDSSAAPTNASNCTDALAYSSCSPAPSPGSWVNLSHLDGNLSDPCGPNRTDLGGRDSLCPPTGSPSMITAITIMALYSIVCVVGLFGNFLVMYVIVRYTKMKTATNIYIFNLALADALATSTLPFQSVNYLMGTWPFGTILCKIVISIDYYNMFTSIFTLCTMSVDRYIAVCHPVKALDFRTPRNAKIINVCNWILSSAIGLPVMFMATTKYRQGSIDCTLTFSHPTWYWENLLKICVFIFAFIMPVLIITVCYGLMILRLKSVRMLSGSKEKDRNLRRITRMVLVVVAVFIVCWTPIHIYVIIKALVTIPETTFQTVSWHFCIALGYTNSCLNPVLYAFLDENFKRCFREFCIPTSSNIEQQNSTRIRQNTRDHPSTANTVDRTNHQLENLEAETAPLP

[15] = molecular target: Beta-3 adrenergic receptor (Homo sapiens) (UniProt P13945); conditions: Compound concentration 10.0 uM
Beta-3 adrenergic receptor (Homo sapiens), sequence (P13945 whole entry, looked up): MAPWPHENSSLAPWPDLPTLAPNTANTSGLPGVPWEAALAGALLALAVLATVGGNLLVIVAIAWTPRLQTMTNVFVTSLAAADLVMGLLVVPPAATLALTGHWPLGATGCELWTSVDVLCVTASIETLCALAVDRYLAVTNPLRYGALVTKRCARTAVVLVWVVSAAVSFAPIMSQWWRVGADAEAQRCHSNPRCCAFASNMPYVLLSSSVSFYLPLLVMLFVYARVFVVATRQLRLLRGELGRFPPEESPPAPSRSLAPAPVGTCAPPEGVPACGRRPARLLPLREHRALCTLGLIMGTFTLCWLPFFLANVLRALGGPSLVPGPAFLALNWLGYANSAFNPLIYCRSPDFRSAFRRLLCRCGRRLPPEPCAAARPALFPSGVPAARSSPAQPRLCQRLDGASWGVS

[16] = molecular target: T4, Muscarinic acetylcholine receptor M5 (Homo sapiens) (UniProt P08912); conditions: Compound concentration 10.0 uM
T4 sequence (whole entry): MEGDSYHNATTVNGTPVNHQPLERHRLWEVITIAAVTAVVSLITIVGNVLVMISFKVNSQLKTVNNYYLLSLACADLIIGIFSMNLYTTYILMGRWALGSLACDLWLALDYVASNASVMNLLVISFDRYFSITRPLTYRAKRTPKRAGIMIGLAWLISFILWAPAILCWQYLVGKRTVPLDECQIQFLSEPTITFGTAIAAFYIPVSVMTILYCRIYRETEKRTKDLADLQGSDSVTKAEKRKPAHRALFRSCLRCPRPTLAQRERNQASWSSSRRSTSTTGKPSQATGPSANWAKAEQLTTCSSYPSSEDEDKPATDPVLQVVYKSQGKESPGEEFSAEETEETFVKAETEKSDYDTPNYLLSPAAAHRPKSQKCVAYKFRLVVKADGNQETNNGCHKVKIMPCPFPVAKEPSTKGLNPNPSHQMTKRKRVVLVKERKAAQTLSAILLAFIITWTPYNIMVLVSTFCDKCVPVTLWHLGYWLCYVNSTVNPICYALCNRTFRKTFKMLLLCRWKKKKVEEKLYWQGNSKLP

[17] = molecular target: Sigma intracellular receptor 2 (Homo sapiens) (UniProt Q5BJF2); conditions: Compound concentration 10.0 uM
Sigma intracellular receptor 2 (Homo sapiens), sequence (Q5BJF2 whole entry): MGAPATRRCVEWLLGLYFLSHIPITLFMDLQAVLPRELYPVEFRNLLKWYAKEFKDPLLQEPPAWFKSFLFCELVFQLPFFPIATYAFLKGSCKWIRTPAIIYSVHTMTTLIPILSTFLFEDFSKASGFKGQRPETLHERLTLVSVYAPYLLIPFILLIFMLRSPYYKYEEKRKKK

[18] = molecular target: 5-hydroxytryptamine receptor 2A (Homo sapiens) (UniProt P28223); conditions: Compound concentration 10.0 uM
5-hydroxytryptamine receptor 2A (Homo sapiens), sequence (P28223 whole entry): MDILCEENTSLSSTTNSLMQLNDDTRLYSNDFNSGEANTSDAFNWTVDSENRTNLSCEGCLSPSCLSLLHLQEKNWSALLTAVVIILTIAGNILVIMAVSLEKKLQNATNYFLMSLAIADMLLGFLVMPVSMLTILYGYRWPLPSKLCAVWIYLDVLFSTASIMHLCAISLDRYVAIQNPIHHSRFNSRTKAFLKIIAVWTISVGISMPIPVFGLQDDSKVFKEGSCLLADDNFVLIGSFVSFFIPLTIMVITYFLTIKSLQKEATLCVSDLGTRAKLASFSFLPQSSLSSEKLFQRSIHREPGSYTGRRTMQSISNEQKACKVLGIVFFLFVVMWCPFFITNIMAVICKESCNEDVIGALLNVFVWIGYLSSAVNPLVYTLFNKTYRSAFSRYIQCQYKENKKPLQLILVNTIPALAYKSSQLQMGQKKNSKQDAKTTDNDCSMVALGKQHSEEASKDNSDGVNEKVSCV

Rattus norvegicus = organism: Rattus norvegicus; conditions: Compound concentration 10.0 uM

5-hydroxytryptamine receptor 7 (Homo sapiens), sequence (P34969 whole entry): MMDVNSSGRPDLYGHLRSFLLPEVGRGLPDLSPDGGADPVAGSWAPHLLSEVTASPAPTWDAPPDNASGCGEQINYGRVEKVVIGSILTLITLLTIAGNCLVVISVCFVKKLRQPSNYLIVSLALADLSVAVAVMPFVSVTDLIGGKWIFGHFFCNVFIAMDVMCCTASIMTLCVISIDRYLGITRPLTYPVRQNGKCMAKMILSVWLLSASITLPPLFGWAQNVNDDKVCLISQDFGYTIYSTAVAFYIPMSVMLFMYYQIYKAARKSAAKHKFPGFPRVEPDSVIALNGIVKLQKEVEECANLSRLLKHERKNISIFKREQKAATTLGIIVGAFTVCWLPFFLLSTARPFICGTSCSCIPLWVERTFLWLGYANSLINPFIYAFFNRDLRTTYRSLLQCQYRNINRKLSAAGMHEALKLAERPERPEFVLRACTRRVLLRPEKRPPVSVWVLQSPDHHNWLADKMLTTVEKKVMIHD
5-hydroxytryptamine receptor 1B (Homo sapiens), sequence (P28222 whole entry): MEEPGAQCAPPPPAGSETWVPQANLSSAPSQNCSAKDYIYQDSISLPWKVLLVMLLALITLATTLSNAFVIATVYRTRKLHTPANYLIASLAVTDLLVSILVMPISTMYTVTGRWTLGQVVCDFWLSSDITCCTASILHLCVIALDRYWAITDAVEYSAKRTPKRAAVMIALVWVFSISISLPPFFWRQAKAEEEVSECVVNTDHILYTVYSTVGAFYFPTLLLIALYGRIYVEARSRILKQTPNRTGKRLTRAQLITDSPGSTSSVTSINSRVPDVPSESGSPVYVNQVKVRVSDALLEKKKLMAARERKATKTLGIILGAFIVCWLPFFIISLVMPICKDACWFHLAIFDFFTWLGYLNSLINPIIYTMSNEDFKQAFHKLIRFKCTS

In the case of `CCCOc1ccc([C@H]2[C@H](C(=O)O)[C@@H](c3ccc4c(c3)OCO4)CN2CC(=O)Nc2c(CC)cccc2CC)cc1` [A-192621], the inhibition [1] is reported as -3.72%, the inhibition [2] is reported as 4.31% and the IC50 (Endothelin-1 receptor) is reported as > 1000 nM (not active). For the same compound, the inhibition [3] was 5.77%, the inhibition [4] was -5.43% and the IC50 [5] was 0.8 nM (active). The inhibition [6] was 5.57%, the inhibition [7] was 10.6% and the inhibition [8] was -5.44%. It also gave an inhibition [9] of -1.79%, an inhibition [10] of 7.94% and an inhibition [11] of 12.5%. For the same compound, the inhibition [12] was 17.3%, the inhibition [13] was -0.22% and the inhibition [14] was 6.79%. The inhibition [15] was 13.3%, the inhibition [16] was 27.3% and the inhibition [17] was -7.1%. The inhibition [18] was 4.84% and the inhibition (Rattus norvegicus) was 16.5%.
